Assay results published in patent US4696920A, “Certain 2-substituted 1,3-propylidenediphosphonate derivatives, pharmaceutical compositions containing them and their use as antihypertensive agents” (priority 1984, dated 1987).
Each block holds one compound with its values, some of them ahead of it.

What was measured:
[1] = system: calcium channel binding site for [^3 H]-Nitrendipine (rat brain membranes); assay: [^3 H]-Nitrendipine binding to rat brain membranes; design: species or system rat (male Wistar); conditions: Table 1a; for Specifically bound [^3 H]-Nitrendipine % of control value: compound concentration 1.0 μM; for Bound ^3 H at 1.0 μM / Bound ^3 H at 0.1 μM: ratio of [^3 H]-Nitrendipine bound at 1.0 and 0.1 μM compound
Experimental: (§1) Diltiazem hydrochloride was a generous gift from Goedecke A. G.
Suitable dilutions were made in 50 mM Tris-HCl buffer (pH 7.4) containing 150 mM NaCl and 1 mM CaCl2. The ethanol concentration in the final assay never exceeded 0.1%.
(§2) The purity of the radioligand and of the various agents tested was monitored by thin layer chromatography on silica gel plates.
(§3) The following procedure was adapted from Bellemann et al (Proc. Nat. Acad. Sci. 80, 2356, 1983), and Gould et al (Proc. Nat. Acad. Sci. 79, 3656, 1982).
(§4) Adult male Wistar rats weighing 250-300 g were anesthetized with carbon dioxide prior to decapitation. The brain was removed then immersed in ice-cold 0.32M sucrose and washed 2-3 times with fresh solution. Cerebral cortex was minced and homogenized (Potter-Elvehjem homogenizer) in 10 volumes of ice-cold sucrose solution. The homogenate was centrifuged (4° C.) at 1000×g for 15 minutes. The resulting supernatant was then centrifuged at 90000×g (30 minutes) and the pellet was washed twice with 20 ml ice-cold 50 mM Tris-HCl pH 7.4.
(§5) The final pellet was resuspended in 50 mM Tris-HCl pH 7.4/150 mM NaCl/1 mM CaCl2 to give a protein concentration of 4 mg/ml.
(§6) The membrane suspension was kept on ice until used. Binding assays were performed in subdued light to prevent dihydropyridine breakdown. Membrane protein (400 μg/tube) was incubated in 50 mM Tris-HCl buffer (pH 7.4)/150 mM NaCl/1 mM CaCl2 with the indicated concentrations of radioligand and test compounds or known calcium antagonists, in a total volume of 2 ml. After the indicated time intervals, the reaction was terminated by rapid filtration through Whatman GF/B glass fiber filters (2.4 cm diameter) on a Millipore filter holder. The assay tube was rinsed with 2 ml ice-cold 50 mM Tris-HCl pH (7.4) and the precipitate was further washed with 2×5 ml of the same buffer.
(§7) Filters were dried under a heat lamp and were extracted with 10 ml of liquid scintillation cocktail (Toluene/Triton X-100, 2/1 containing 4 g Omnifluor/1) prior to tritium determination at 48% counting efficiency.
(§8) Assays were performed in duplicate or triplicate.
(§9) Data were expressed as percent specific [^3 H]-Nitrendipine binding relative to the established control value.
(§10) Compound activity in the [^3 H]-Nitrendipine binding assay was evaluated by using the following criteria:
(§11) 1. [^3 H]-Nitrendipine binding at 1.0 μM compound final concentration was either below 95% or above 105% of the control value determined in absence of compound.
2. […] This ratio is indicative of a dose response relationship within the compound concentration range tested, when the value differs appreciably from 1.0.

[2] = system: mean blood pressure in rat; assay: Acute intravenous hypotensive activity in anesthetized rats; assay type: in vivo, rat (male Wistar)
Experimental: Male Wistar rats were anesthetized with Pentobarbital (Nembutal, 60 mg/kg i.p.) and heparinized (5 mg/kg i.p.). After tracheotomy the right carotid was cannulated (catheter PE 50); blood pressure was measured with a pressure transducer (Statham P 23 db) and recorded on a polygraph (Beckman).
Animals received 0.5 and 1.5 mg/kg of the test compounds. Less than 100 μl of test compounds dissolved in 0.9% saline were injected in the jugular vein. Highly water insoluble compounds were suspended in 2% Tween-80. Injection of the vehicle alone had no detectable hypotensive effect.
Results presented are expressed as percent decrease in initial mean blood pressure (Mean±SEM).

[3] = system: rat trachea contraction induced by KCl depolarization; assay: KCl-induced rat trachea contraction; design: species or system rat (male SHR, Okamoto-Aoki); conditions: Rattus norvegicus, 40 min, read-out: Contraction (% max.)
Experimental: Spontaneously hypertensive male rats (SHR) Okamoto-Aoki Strain, weighing 300-400 g were used in this study. They were killed by bleeding after Pentobarbital anesthesia (Nembutal, Abbott Co, 40 mg/kg). Their entire trachea was quickly removed and dissected free of fat and connective tissue in Krebs-Ringer solution. A strip (4 mm×40 mm), obtained by spirally cutting the trachea, was immediately suspended in a 50 ml Krebs-Ringer solution and continuously bubbled with a O2 /CO2 (95/5) mixture. Bath temperature was maintained at 37±1° C. The composition (mM) of the Krebs-Ringer solution modified by Nghiem, was as follows: NaCl, (118.0); KCl, (4.7); CaCl2, (2.5); MgCl2, (1.18); NaHCO3, (12.5); KH2 P04, (1.18); glucose, (5.5) in bidistilled water (pH 7.4). Each strip was equilibrated under initial tension (1.5-2 g) for 1-2 hours and the bath solution changed every 30 min. A contractile or relaxant response was isometrically measured with a force-displacement transducer (Ugo-Basile) and recorded on a polygraph (Beckman).
After equilibration, KCl was added to the bath at 65 mM final concentration. This concentration produced maximum trachea contraction. Under these conditions, a plateau phase showing a tonic sustained contraction was reached within 30 minutes. Drugs were added 30 minutes after the plateau phase has been reached (final concentration=1.0 μM). […] Recordings of the residual trachea contraction were made 40 minutes after drug addition to the bathing fluid. The initial KCl induced contraction was taken as the maximum KCl response (100%). Results were expressed as % of maximal contraction. Nifedipine, Prenylamine, Flunarizine and Diltiazem were used as reference standards to validate this assay.
All 1,3-diphosphonates and drugs were dissolved in saline (0.9% NaCl) except when water insoluble, then the compounds were dissolved in 2% ethanol. The final concentration of ethanol used has been shown not to interfere with the assay.
Results are expressed as mean values±SEM, the Student's t-test was used for statistical analysis.

[4] = system: drug receptor sites associated with calcium channels; conditions: known calcium antagonists; cited from earlier work
[5] = system: [^3 H]-PN-200 110 (dihydropyridine) binding site of calcium channel, rat brain membranes; assay: [^3 H]-PN-200 110 binding to rat brain membranes; design: species or system rat (male Wistar); conditions: for Specifically bound [^3 H]-PN-200 110 % of control value: compound concentration 1.0 μM; for Specifically bound [^3 H]-PN-200 110 % of control value / Bound ^3 H at 1.0 μM / Bound ^3 H at 0.1 μM: Table 1b; for Bound ^3 H at 1.0 μM / Bound ^3 H at 0.1 μM: ratio of [^3 H]-PN-200 110 bound at 1.0 and 0.1 μM compound
Experimental: as §1
Water insoluble compounds were dissolved in absolute ethanol to give 10 mM or 2.5 mM stock solutions. Suitable dilutions were made in 50 mM Tris-HCl buffer (pH 7.4) containing 150 mM NaCl and 1 mM CaCl2. The ethanol concentration in the final assay never exceeded 0.1%.
as §2, §3, §4, §5, §6, §7, §8, §9, §10, §11
2. The ratio obtained by dividing the amount of specifically found [^3 H]-Nitrendipine at 1.0 μM compound final concentration by the value obtained at 0.1 μM test compound, was smaller than 0.9 or greater than 1.1. This ratio is indicative of a dose response relationship within the compound concentration range tested, when the value differs appreciably from 1.0.
Note: In some experiments [^3 H]-PN200 110, a new and commercially available specific dihydropyridine was used instead of [^3 H]-Nitrendipine.

[6] = Rattus norvegicus, iv, read-out: Decrease in mean blood pressure (% pretest)

Compound: CCOP(=O)(CC(CCCc1ccccc1)CP(=O)(OCC)OCC)OCC [Compound 27]
Specifically bound [^3 H]-Nitrendipine % of control value [1]: 95 % of control value
Bound ^3 H at 1.0 μM / Bound ^3 H at 0.1 μM [1]: 0.982
inhibition in vivo at 0.5 mg/kg [2, 6]: 25.6 ± 2.2%
inhibition in vivo at 1.5 mg/kg [2, 6]: 35 ± 4.7%

Compound: CCOP(=O)(CC(Cc1ccc(Cl)cc1)CP(=O)(OCC)OCC)OCC [Compound 30]
Specifically bound [^3 H]-Nitrendipine % of control value [1]: 99 % of control value
Bound ^3 H at 1.0 μM / Bound ^3 H at 0.1 μM [1]: 1.003
activity at 1 µM [3]: 90%
inhibition in vivo at 0.5 mg/kg [2, 6]: 17%
inhibition in vivo at 1.5 mg/kg [2, 6]: 34.4 ± 5.1%

Compound: CCOP(=O)(CC(CCc1ccccc1)CP(=O)(OCC)OCC)OCC [Compound 26]
Specifically bound [^3 H]-Nitrendipine % of control value [1]: 89 % of control value
Bound ^3 H at 1.0 μM / Bound ^3 H at 0.1 μM [1]: 1.018
inhibition in vivo at 0.5 mg/kg [2, 6]: 18.1 ± 3%
inhibition in vivo at 1.5 mg/kg [2, 6]: 41.6 ± 1.3%

Compound: C[C@](N)(Cc1ccc(O)c(O)c1)C(=O)O [Methyl Dopa, reference compound]
inhibition in vivo at 1 mg/kg [2, 6]: 0%

Compound: Fc1ccc(C(c2ccc(F)cc2)N2CCN(C/C=C/c3ccccc3)CC2)cc1 [Flunarizine]
effect on [^3 H]-Nitrendipine binding (in words) [4]: reduce [^3 H]-Nitrendipine binding affinity

Compound: CCCCOP(=O)(CC(CCCC1(C)OCCO1)CP(=O)(OCCCC)OCCCC)OCCCC [Compound 106]
Specifically bound [^3 H]-PN-200 110 % of control value [5]: 42 % of control value
Bound ^3 H at 1.0 μM / Bound ^3 H at 0.1 μM [5]: 0.570
potency in [^3 H]-PN200 110 binding (in words) ([5]; text on Table 1b): as potent as Nifedipine

Compound: CCCCOP(=O)(CC(Cc1cc(OC)c(OC)c(OC)c1)CP(=O)(OCCCC)OCCCC)OCCCC [Compound 82]
Specifically bound [^3 H]-Nitrendipine % of control value [1]: 90 % of control value
Bound ^3 H at 1.0 μM / Bound ^3 H at 0.1 μM [1]: 0.886
activity at 1 µM [3]: 80 ± 4%
inhibition in vivo at 0.5 mg/kg [2, 6]: 40.1 ± 3.2%
hypotensive activity (in words) ([2]; acute i.v., Table 4): hypotensive activity superior to that of classical hypotensive drugs and of the calcium antagonists used as references

Compound: CCCCOP(=O)(CC(Cc1cc2c(cc1Cl)OCO2)CP(=O)(OCCCC)OCCCC)OCCCC [Compound 99]
Specifically bound [^3 H]-PN-200 110 % of control value [5]: 56 % of control value
Bound ^3 H at 1.0 μM / Bound ^3 H at 0.1 μM [5]: 0.627

Specifically bound [^3 H]-PN-200 110 % of control value [5]: 13 % of control value
Bound ^3 H at 1.0 μM / Bound ^3 H at 0.1 μM [5]: 0.294
Compound: C=CCCOP(=O)(CC(CCOc1ccccc1)CP(=O)(OCCC=C)OCCC=C)OCCC=C [Compound 110]

Compound: CCOP(=O)(CC(Cc1cc(OC)c(OC)c(OC)c1)CP(=O)(OCC)OCC)OCC [Compound 36]
Specifically bound [^3 H]-Nitrendipine % of control value [1]: 100 % of control value
Bound ^3 H at 1.0 μM / Bound ^3 H at 0.1 μM [1]: 0.966
inhibition in vivo at 0.5 mg/kg [2, 6]: 39.9 ± 1.6%

Compound: CCCCOP(=O)(CC(CCOc1ccc(-c2ccccc2)cc1)CP(=O)(OCCCC)OCCCC)OCCCC [Compound 100]
Specifically bound [^3 H]-PN-200 110 % of control value [5]: 38 % of control value
Bound ^3 H at 1.0 μM / Bound ^3 H at 0.1 μM [5]: 0.504

Compound: CCCCOP(=O)(CC(Cc1ccc(CN2CCN(c3ccccc3)CC2)cc1)CP(=O)(OCCCC)OCCCC)OCCCC [Compound 104]
Specifically bound [^3 H]-PN-200 110 % of control value [5]: 59 % of control value
Bound ^3 H at 1.0 μM / Bound ^3 H at 0.1 μM [5]: 0.687
